Test results from paper PMC10724293, “New ruthenium-xanthoxylin complex eliminates colorectal cancer stem cells by targeting the heat shock protein 90 chaperone” (Cell Death & Disease, 2023).

Columns and labels:
HCT116 cells [1] = assay: Functional cell death assay with inhibitors/activator; assay type: cell-based, human; conditions: then 10 µM RXC for 48 h; for effect of autophagy inhibitor on RXC-induced cell death: pretreated with 50 µM CQ or 5 mM 3-MA, annexin V-FITC/PI
Description: (§1) For apoptosis detection or functional assays, cell viability was quantified using annexin V-FITC/PI (FITC Annexin V Apoptosis Detection Kit I, BD Biosciences, San Jose, CA, USA) or YO-PRO-1/PI (Sigma-Aldrich Co.). The following inhibitors were used: chloroquine (autophagy inhibitor, Ipca Laboratories, Mumbai, MH, India); 3-methyladenine (autophagy inhibitor, Sigma-Aldrich Co.); and lithium chloride (Wnt activator, Sigma-Aldrich Co.).

WT SV40 MEF = assay: Alamar blue survival curves; assay type: cell-based; conditions: Mus musculus, 72 h
Description: (§2) The Alamar blue assay was used to determine cell viability as previously described. Cells were seeded into 96-well plates at a density of 7 × 10^3 cells per well for adherent cells or 3 × 10^4 cells per well for suspended cells. The drug was added to each well after 24 h of incubation for adherent cells or immediately for suspended cells and incubated for an additional 72 h. […] Each well received 100 µM resazurin (Sigma-Aldrich Co. St. Louis, MO, United States) four (for cell lines) or 24 (for primary culture) h before the end of the incubation. A SpectraMax 190 Microplate Reader (Molecular Devices, Sunnyvale, CA, USA) was used to measure absorbance at 570 and 600 nm.

BAD KO SV40 MEF = assay: Alamar blue survival curves and cell death; assay type: cell-based, mouse; conditions: Mus musculus; BAD KO SV40 MEF; Alamar blue, 72 h
Description: as §2, §1

4T1 = assay: Alamar blue cytotoxicity assay; assay type: cell-based, mouse; conditions: Mus musculus, 72 h, read-out: IC50 and 95%CI
Description: as §2

B16-F10 = assay: Alamar blue cytotoxicity assay; assay type: cell-based, mouse; conditions: Mus musculus, 72 h, read-out: IC50 and 95%CI
Description: as §2

A-375 = assay: Alamar blue cytotoxicity assay; assay type: cell-based, human; conditions: Homo sapiens, 72 h, read-out: IC50 and 95%CI
Description: as §2

A549 = assay: Alamar blue cytotoxicity assay; assay type: cell-based, human; conditions: Homo sapiens, 72 h, read-out: IC50 and 95%CI
Description: as §2

CAL 27 = assay: Alamar blue cytotoxicity assay; assay type: cell-based, human; conditions: Homo sapiens, 72 h, read-out: IC50 and 95%CI
Description: as §2

DU 145 = assay: Alamar blue cytotoxicity assay; assay type: cell-based, human; conditions: Homo sapiens, 72 h, read-out: IC50 and 95%CI
Description: as §2

H1299 = assay: Alamar blue cytotoxicity assay; assay type: cell-based, human; conditions: Homo sapiens, NCI-H1299, 72 h, read-out: IC50 and 95%CI
Description: as §2

HCT116 = assay: Alamar blue cytotoxicity assay; assay type: cell-based, human; conditions: Homo sapiens, HCT-116, 72 h, read-out: IC50 and 95%CI
Description: as §2

HL-60 = assay: Alamar blue cytotoxicity assay; assay type: cell-based, human; conditions: Homo sapiens, 72 h, read-out: IC50 and 95%CI
Description: as §2

HSC-3 = assay: Alamar blue cytotoxicity assay; assay type: cell-based, human; conditions: Homo sapiens, 72 h, read-out: IC50 and 95%CI
Description: as §2

HepG2 = assay: Alamar blue cytotoxicity assay; assay type: cell-based, human; conditions: Homo sapiens, 72 h, read-out: IC50 and 95%CI
Description: as §2

JUKART = assay: Alamar blue cytotoxicity assay; assay type: cell-based, human; conditions: Homo sapiens, 72 h, read-out: IC50 and 95%CI
Description: as §2

K-562 = assay: Alamar blue cytotoxicity assay; assay type: cell-based, human; conditions: Homo sapiens, K562, 72 h, read-out: IC50 and 95%CI
Description: as §2

KG-1a = assay: Alamar blue cytotoxicity assay; assay type: cell-based, human; conditions: Homo sapiens, 72 h, read-out: IC50 and 95%CI
Description: as §2

MDA-MB-231 = assay: Alamar blue cytotoxicity assay; assay type: cell-based, human; conditions: Homo sapiens, 72 h, read-out: IC50 and 95%CI
Description: as §2

NB4 = assay: Alamar blue cytotoxicity assay; assay type: cell-based, human; conditions: Homo sapiens, NB-4, 72 h, read-out: IC50 and 95%CI
Description: as §2

PANC-1 = assay: Alamar blue cytotoxicity assay; assay type: cell-based, human; conditions: Homo sapiens, 72 h, read-out: IC50 and 95%CI
Description: as §2

SCC-25 = assay: Alamar blue cytotoxicity assay; assay type: cell-based, human; conditions: Homo sapiens, 72 h, read-out: IC50 and 95%CI
Description: as §2

SCC-9 = assay: Alamar blue cytotoxicity assay; assay type: cell-based, human; conditions: Homo sapiens, 72 h, read-out: IC50 and 95%CI
Description: as §2

SCC4 = assay: Alamar blue cytotoxicity assay; assay type: cell-based, human; conditions: Homo sapiens, SCC-4, 72 h, read-out: IC50 and 95%CI
Description: as §2

THP-1 = assay: Alamar blue cytotoxicity assay; assay type: cell-based, human; conditions: Homo sapiens, 72 h, read-out: IC50 and 95%CI
Description: as §2

U-87 MG = assay: Alamar blue cytotoxicity assay; assay type: cell-based, human; conditions: Homo sapiens, 72 h, read-out: IC50 and 95%CI
Description: as §2

BJ = assay: Alamar blue cytotoxicity assay, noncancerous cells; assay type: cell-based, human; conditions: Homo sapiens, 72 h, read-out: IC50 and 95%CI
Description: as §2

MRC-5 = assay: Alamar blue cytotoxicity assay, noncancerous cells; assay type: cell-based, human; conditions: Homo sapiens, MRC5, MRC-5 noncancerous cells, 72 h, read-out: IC50 and 95%CI
Description: as §2

PBMC = assay: Alamar blue cytotoxicity assay, noncancerous cells; assay type: cell-based, human; conditions: Homo sapiens, 72 h, read-out: IC50 and 95%CI
Description: as §2

[2] = tested on: CR01 (colorectal carcinoma); assay: Alamar blue viability of primary cancer cells; assay type: cell-based, human; conditions: primary CRC (first listed); 25 μg/ml (RXC 31.3 μM, DOX 46 μM); 96 h
Description: as §2
(§3) CR03 (metastatic cholangiocarcinoma) CR04 (malignant papillary mesothelioma) […]
(§4) Figure S1. […] Cells were exposed to 25 […]
(§5) measured after 96 h using the Alamar blue assay. The data are presented as the […]
(§6) mean ± S.E.M. of four replicates. * P < 0.05 compared to CTL by one-way ANOVA […]
(§7) followed by Dunnett's multiple comparisons test. […]

[3] = tested on: CR03 (metastatic cholangiocarcinoma); assay: Alamar blue viability of primary cancer cells; assay type: cell-based, human; conditions: 25 μg/ml (RXC 31.3 μM, DOX 46 μM), 96 h
Description: as §2, §3, §4, §5, §6, §7

[4] = tested on: CR04 (malignant papillary mesothelioma); assay: Alamar blue viability of primary cancer cells; assay type: cell-based, human; conditions: primary papilliferous malignant mesothelioma; 25 μg/ml (RXC 31.3 μM, DOX 46 μM); 96 h
Description: as §2, §3, §4, §5, §6, §7

HCT116 cells [5] = assay: Cell cycle distribution and internucleosomal DNA fragmentation by flow cytometry; assay type: cell-based, human; conditions: 1 µM, positive control
Description: For quantification of internucleosomal DNA fragmentation and cell cycle distribution, the cells were stained with PI using a solution containing 0.1% Triton X-100, 2 µg/ml PI, 0.1% sodium citrate, and 100 µg/ml RNAse (all from Sigma-Aldrich) and incubated in the dark for 15 min at room temperature. Finally, cell fluorescence was measured using flow cytometry.
For all flow cytometry analyses, cell fluorescence was measured with a BD LSRFortessa cytometer and analyzed by BD FACSDiva Software (BD Biosciences) and FlowJo Software 10 (FlowJo LLC; Ashland, OR, USA). At least 10,000 events were evaluated per sample for intracellular staining, and at least 30,000 events were acquired per sample for cell surface protein staining. FSC-A versus FCS-H and SCC-A versus SCC-H were used to remove the doublets. The analysis excluded cellular debris.

HCT116 cells [6] = assay: CRC tumor growth xenograft model; assay type: in vivo, C. B-17 SCID mice; conditions: RXC 2 mg/kg, DOX 0.8 mg/kg, i.p. once a day for 2 weeks
Description: HCT116 cells (10^7 cells/500 μl) were inoculated subcutaneously into the left front armpit of mice, as previously reported. The animals were then treated intraperitoneally (200 μl/animal) once a day for 2 weeks. […] The animals were euthanized with an anesthetic overdose (thiopental, 100 mg/kg) 1 day after treatment ended, and tumors were excised, weighed, and processed for histological analysis. The inhibition ratio (percent) was calculated as follows: inhibition ratio (percent) = [(A − B)/A] × 100, where A is the average tumor weight of the negative control and B is the treated group.

[7] = RXC 2 mg/kg, DOX 0.8 mg/kg
Description: To evaluate toxicological features, all animals were weighed at the beginning and end of the experiment. Throughout the experiment, the animals were monitored for abnormalities. An Advia 60 hematology system was used to perform hematological analyses (Bayer, Leverkusen, Germany). The livers, kidneys, lungs, and hearts were removed, weighed, and examined for color change, gross lesion formation, and/or hemorrhaging before being fixed in 4% formaldehyde, dehydrated in a graded alcohol series, washed in xylene, and embedded in paraffin wax. The tissue was cut into 5 μm thick slices, stained with hematoxylin-eosin and/or periodic acid-Schiff (liver and kidney), and examined histologically under optical microscopy.

SMILES: Cn1cnc(N)c2ncnc1-2 [3-MA, 3-methyladenine]
- effect of autophagy inhibitor on RXC-induced cell death (HCT116 cells [1]): enhanced RXC-induced cell death

SMILES: O=c1[nH]cc(F)c(=O)[nH]1 [5-FU, 5-fluorouracil, reference compound]
- IC50 (WT SV40 MEF): 10000 nM
- IC50 (BAD KO SV40 MEF): 25800 nM

SMILES: CCN(CC)CCCC(C)Nc1ccnc2cc(Cl)ccc12 (stereo not shown) [CQ, chloroquine]
- effect of autophagy inhibitor on RXC-induced cell death (HCT116 cells [1]): enhanced RXC-induced cell death

SMILES: COc1cccc2c1C(=O)c1c(O)c3c(c(O)c1C2=O)C[C@@](O)(C(=O)CO)C[C@@H]3O[C@H]1C[C@H](N)[C@H](O)[C@H](C)O1 [DOX, Doxorubicin, reference compound]
- IC50 (4T1): 1700 nM
- IC50 (B16-F10): 530 nM
- IC50 (A-375): 160 nM
- IC50 (A549): 2350 nM
- IC50 (CAL 27): 180 nM
- IC50 (DU 145): 220 nM
- IC50 (H1299): 770 nM
- IC50 (HCT116): 3300 nM
- IC50 (HL-60): 90 nM
- IC50 (HSC-3): 1430 nM
- IC50 (HepG2): 90 nM
- IC50 (JUKART): 30 nM
- IC50 (K-562): 1500 nM
- IC50 (KG-1a): 400 nM
- IC50 (MDA-MB-231): 550 nM
- IC50 (NB4): 110 nM
- IC50 (PANC-1): 1060 nM
- IC50 (SCC-25): 1580 nM
- IC50 (SCC-9): 1210 nM
- IC50 (SCC4): 70 nM
- IC50 (THP-1): 120 nM
- IC50 (U-87 MG): 440 nM
- IC50 (BJ): 730 nM
- IC50 (MRC-5): 1610 nM
- IC50 (PBMC): 1280 nM
- reduced cell viability [2]: 71.0%
- reduced cell viability [3]: 65.6%
- reduced cell viability [4]: 64.3%
- cell cycle effect (HCT116 cells [5]): G2/M arrest
- tumor mass inhibition (HCT116 cells [6]): 46.7%
- hematological analysis ([7]; i.p. once a day for 2 weeks): Decreases in erythrocytes, hemoglobin, hematocrit, MCV and leukocytes
- animals died during the treatment ([7]; i.p. once a day for 2 weeks, n = 15 per group): four
- body weight ([7]; i.p. once a day for 2 weeks, p < 0.05): decrease in body weight
- liver histology ([7]; mainly in treated animals): focal areas of hepatocyte coagulation necrosis
- kidney histology ([7]; more evident than in control): focal areas of coagulation necrosis of the renal cortex tubules

SMILES: [Cl-].[Li+] [lithium chloride]
- effect of Wnt activator on RXC-induced cell death (HCT116 cells [1]; pretreated with 25 mM LiCl, YO-PRO-1/PI): ineffective in preventing RXC-induced cell death
